Reference: ChEMBL document CHEMBL1250431, “Morphinans and isoquinolines: acetylcholinesterase inhibition, pharmacophore modeling, and interaction with opioid receptors” (Bioorg Med Chem, 2010)

Experiments:
Acetylcholinesterase = Acetylcholinesterase (Electrophorus electricus, UniProt O42275); assay: Inhibition of electric eel AChE by Ellman's method
Mu-type opioid receptor = Mu-type opioid receptor (Rattus norvegicus, UniProt P33535); assay: Displacement of [3H]DAMGO from mu opioid receptor in rat brain membrane; type: cell membranes
[1] = target: Delta-type opioid receptor (Rattus norvegicus, UniProt P33533); assay: Displacement of [3H][Ile5,6]deltorphin2 from delta opioid receptor in rat brain membrane; type: cell membranes
[2] = target: Kappa-type opioid receptor (Cavia porcellus, UniProt P41144); assay: Displacement of [3H]U69593 from kappa opioid receptor in guinea pig brain membrane; type: cell membranes
Kappa-type opioid receptor, sequence (P41144 whole entry): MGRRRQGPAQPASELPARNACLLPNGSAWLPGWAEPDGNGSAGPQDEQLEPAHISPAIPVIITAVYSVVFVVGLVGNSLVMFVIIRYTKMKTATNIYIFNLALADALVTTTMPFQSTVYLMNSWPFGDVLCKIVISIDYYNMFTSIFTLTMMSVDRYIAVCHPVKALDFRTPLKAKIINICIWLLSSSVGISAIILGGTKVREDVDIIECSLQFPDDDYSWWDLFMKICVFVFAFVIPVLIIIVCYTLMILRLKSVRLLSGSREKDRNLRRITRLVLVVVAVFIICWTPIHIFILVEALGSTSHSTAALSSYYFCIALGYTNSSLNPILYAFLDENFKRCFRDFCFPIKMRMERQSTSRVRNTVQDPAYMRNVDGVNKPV

Acetylcholinesterase, sequence (O42275 whole entry): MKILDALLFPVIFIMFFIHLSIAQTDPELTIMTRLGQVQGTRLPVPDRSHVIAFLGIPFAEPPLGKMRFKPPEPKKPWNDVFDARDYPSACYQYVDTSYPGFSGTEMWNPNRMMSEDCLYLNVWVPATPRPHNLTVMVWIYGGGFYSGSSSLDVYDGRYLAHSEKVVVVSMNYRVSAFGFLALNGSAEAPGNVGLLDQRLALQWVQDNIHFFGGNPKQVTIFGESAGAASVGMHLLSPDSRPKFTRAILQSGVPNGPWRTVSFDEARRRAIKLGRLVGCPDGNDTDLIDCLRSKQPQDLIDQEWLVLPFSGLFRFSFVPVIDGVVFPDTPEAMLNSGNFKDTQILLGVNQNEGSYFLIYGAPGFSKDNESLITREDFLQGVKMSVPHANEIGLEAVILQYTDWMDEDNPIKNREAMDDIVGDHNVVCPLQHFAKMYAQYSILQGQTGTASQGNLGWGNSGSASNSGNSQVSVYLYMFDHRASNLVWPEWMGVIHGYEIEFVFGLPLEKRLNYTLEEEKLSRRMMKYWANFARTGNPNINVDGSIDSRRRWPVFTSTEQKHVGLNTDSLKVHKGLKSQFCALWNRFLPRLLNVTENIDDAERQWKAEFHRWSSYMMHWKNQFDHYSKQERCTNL
Delta-type opioid receptor, sequence (P33533 whole entry): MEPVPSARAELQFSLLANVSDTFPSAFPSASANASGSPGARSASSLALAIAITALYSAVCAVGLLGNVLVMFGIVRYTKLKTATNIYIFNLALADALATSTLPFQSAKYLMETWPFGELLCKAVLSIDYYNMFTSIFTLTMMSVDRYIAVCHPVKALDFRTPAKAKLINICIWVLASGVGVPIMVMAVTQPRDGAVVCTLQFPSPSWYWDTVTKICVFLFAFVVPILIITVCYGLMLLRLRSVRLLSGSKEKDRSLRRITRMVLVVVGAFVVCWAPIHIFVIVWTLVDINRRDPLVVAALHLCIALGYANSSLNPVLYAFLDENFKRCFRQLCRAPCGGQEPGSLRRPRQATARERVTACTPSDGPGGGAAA
Mu-type opioid receptor, sequence (P33535 whole entry): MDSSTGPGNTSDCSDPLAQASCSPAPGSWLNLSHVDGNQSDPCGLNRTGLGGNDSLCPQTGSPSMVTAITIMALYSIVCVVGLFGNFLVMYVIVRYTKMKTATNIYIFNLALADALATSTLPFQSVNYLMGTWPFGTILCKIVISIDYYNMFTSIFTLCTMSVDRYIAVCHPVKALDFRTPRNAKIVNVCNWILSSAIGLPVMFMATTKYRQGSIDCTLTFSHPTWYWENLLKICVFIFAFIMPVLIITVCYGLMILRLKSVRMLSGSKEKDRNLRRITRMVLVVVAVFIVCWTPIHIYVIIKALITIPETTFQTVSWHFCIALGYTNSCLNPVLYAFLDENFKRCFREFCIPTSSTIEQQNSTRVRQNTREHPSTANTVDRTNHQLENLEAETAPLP

Row | Compound | Ki (Acetylcholinesterase) [nM] | Ki (Mu-type opioid receptor) [nM] | Ki [1] [nM] | Ki [2] [nM] | IC50 (Acetylcholinesterase) [nM]
1 | CN1CC[C@@]23CCCC[C@@H]2[C@@H]1Cc1ccc(O)cc13 [DEXTRORPHAN] | 20000 | – | – | – | –
2 | O=CN1CC[C@]23CC(=O)CC[C@H]2[C@H]1Cc1c(O)ccc(O)c13 | – | 67.2 | 1250 | 328 | –
3 | COc1cccc(CC2=NCCc3cc(OC)ccc32)c1 | – | – | – | – | 42900
4 | CO[C@@]12CCC(=O)[C@@H]3Oc4cccc5c4[C@@]31CCN(C)[C@@H]2C5 | – | – | – | – | 140000
5 | COc1ccc2c3c1O[C@H]1C(=O)CC[C@@]4(O)[C@@H](C2)N(C)CC[C@]314 [OXYCODONE] | – | – | – | – | 76200
6 | C=CCN1CC[C@]23CC(=O)CC[C@@]2(OC)[C@H]1Cc1cccc(OC)c13 | – | 2 | 210 | 567 | –
7 | O=CN1CC[C@]23CC(=O)CC[C@H]2[C@H]1CC1C(=O)C=CC(=O)C13 (stereo partly specified) | – | 0.46 | 12.2 | 43.2 | 12700
8 | O=CN1CC[C@]23c4c5cccc4O[C@H]2C(=O)CC[C@H]3[C@H]1C5 | – | > 10000 | > 10000 | > 10000 | 60300
9 | COc1cccc2c1[C@]13CCN(C)[C@H](C2)[C@]1(OC)CCC(=O)C3 | – | 1.15 | 101 | 403 | 46200
10 | CCO[C@@]12CCC(=O)C[C@@]13CCN(C)[C@@H]2Cc1cccc(O)c13 | – | 20.2 | 316 | 33.1 | 37100
11 | C=CCN1CC[C@]23CC(=O)CC[C@H]2[C@H]1Cc1cccc(OC(C)=O)c13 | – | – | – | – | 193000
12 | COC1CCC2C(Cc3cccc(O)c3)=NCCC2C1 (stereo unspecified) | – | 2320 | > 10000 | > 10000 | 43100
13 | C=CCN1CC[C@@]23CCCC[C@@H]2[C@@H]1Cc1ccc(O)cc13 [DEXTALLORPHAN] | 20000 | – | – | – | –
14 | COC1=CCC2=C(CCNC2Cc2ccccc2O)C1 (stereo unspecified) | – | > 10000 | > 10000 | > 10000 | 138000
15 | CN1CC[C@]23c4c5cccc4O[C@H]2C(=O)CC[C@@]3(O)[C@H]1C5 | – | – | – | – | 65300
16 | C=CCN1CC[C@]23CCCC[C@H]2[C@H]1Cc1ccc(O)cc13 [LEVALLORPHAN] | 12000 | – | – | – | –
17 | CCO[C@@]12CCC(=O)[C@]3(C)Oc4c(O)ccc5c4[C@@]31CCN(C)[C@@H]2C5 | – | 0.1 | 4.8 | 10.2 | –
18 | CN1CC[C@]23CCCC[C@H]2[C@H]1Cc1ccc(O)cc13 [LEVORPHANOL] | 25000 | – | – | – | –
19 | CCCCCCOc1cccc2c1[C@]13CCN(CC4CC4)[C@H](C2)[C@]1(OC)C=CC(=O)C3 | – | – | – | – | 405000
20 | C=CCN1CC[C@]23CC(=O)CC[C@H]2[C@H]1Cc1cccc(OC)c13 | – | 6.55 | 217 | 113 | –
